Data on 2 compounds can be found in patent US3931344A, “Bromofluorocyclopropanes” (priority 1974, dated 1976).

What all share (assay type): in vivo
The subject of data set [1] is mice. Briefly: lethality in mice on inhalation (LC50). Conditions: 10 minutes, rotating drum, when two figures are given, the actual value lies between them. As to the method: (§1) Mice were exposed to the anesthetic for a period of 10 minutes in a rotating drum. Observations were then made of the pinch reflex, the corneal reflex and the return of the righting reflex. At least four graded doses were employed to determine the minimum concentration required to anesthetize 50% of the mice used (AC50) and the minimum concentration required to kill 50% of the mice (LC50). The anesthetic index (AI) was then calculated from these minimum concentrations.

Data set [2] has as its system mice. The data set is described as follows: inhalation anesthesia test in mice (10 min exposure in a rotating drum; pinch, corneal and righting reflexes). Conditions: for potency as general anesthetics: administered in inhalation-anesthetic-susceptible organisms, in words; for AC50 (minimum concentration required to anesthetize 50% of the mice): inhalation, 10 minutes, rotating drum, at least four graded doses. As to the method: as §1

Assay in data set [3]: as above
The settings on record: mouse, in vivo, inhaled or intranasal; calculated from LC50 and AC50 in mice; read-out: AI (anesthetic index, LC50/AC50). The method, then: as §1

As for `CC1(F)CC1(F)Br` (centres unmarked) [Example 3, 1-bromo-1,2-difluoro-2-methylcyclopropane], in the data set with mice [1], the “LC50 (minimum concentration required to kill 50% of the mice)” value was 5 % volume. Moreover, in the data set with mice [2], the “potency as general anesthetics” value was “high potency” and the “AC50 (minimum concentration required to anesthetize 50% of the mice)” value is recorded as 0.5 % volume. In addition, the selectivity ratio at 10 min in data set [3] is 10.
The corresponding values for `CC1CC1(F)Br` (centres unmarked) [Example 4, 1-bromo-1-fluoro-2-methylcyclopropane] are 4-6 % volume, “high potency”, under 2 % volume and over 2.
